Assays:
ERK = settings: read-out: KD (μM) ERK; docking motif peptide binding to ERK; cited from earlier work
p38 = settings: read-out: KD (μM) p38; docking motif peptide binding to p38; cited from earlier work
JNK = settings: read-out: KD (μM) JNK; docking motif peptide binding to JNK; cited from earlier work
JNK2 = JNK2 (Homo sapiens, UniProt P45984); assay: Recombinant kinase assay, kinetic parameters of sensor phosphorylation; type: biochemical
JNK3 = JNK3 (Homo sapiens, UniProt P53779); assay: as above; type: biochemical
Chain of JNK3 (P53779 whole entry): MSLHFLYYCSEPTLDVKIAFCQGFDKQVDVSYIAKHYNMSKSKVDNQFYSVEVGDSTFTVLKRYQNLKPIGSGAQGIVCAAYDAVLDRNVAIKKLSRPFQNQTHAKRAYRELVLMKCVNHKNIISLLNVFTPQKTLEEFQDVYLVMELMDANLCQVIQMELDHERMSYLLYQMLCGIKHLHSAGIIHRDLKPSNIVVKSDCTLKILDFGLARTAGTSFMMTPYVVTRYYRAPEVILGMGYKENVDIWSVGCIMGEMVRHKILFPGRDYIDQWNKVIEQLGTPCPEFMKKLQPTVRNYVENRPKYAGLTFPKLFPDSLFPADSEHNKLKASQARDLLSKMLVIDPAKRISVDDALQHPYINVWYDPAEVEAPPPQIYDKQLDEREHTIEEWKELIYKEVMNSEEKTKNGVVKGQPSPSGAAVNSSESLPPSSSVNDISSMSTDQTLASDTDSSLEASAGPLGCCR

off target kinases = assay: Kinase panel selectivity screen, JNK sensor, off target kinases; type: biochemical; settings: 15 nM kinase, sensor at 2 × KM (3 μM), other MAP and non-MAP kinases
JNK1 = JNK1 (Homo sapiens, UniProt P45983); assay: Recombinant kinase assay, kinetic parameters of sensor phosphorylation; type: biochemical
Chain of JNK1 (P45983 whole entry): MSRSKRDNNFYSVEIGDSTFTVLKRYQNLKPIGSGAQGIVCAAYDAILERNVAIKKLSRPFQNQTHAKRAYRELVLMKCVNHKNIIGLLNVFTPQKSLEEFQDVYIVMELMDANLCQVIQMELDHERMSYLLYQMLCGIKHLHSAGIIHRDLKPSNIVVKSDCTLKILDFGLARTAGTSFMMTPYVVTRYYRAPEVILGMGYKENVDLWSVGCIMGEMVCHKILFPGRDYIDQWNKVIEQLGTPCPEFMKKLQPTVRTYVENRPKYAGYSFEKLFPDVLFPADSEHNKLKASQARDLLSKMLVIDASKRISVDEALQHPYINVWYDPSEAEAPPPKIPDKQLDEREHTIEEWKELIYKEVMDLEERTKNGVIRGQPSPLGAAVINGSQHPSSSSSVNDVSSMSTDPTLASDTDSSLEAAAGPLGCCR

p38β [1] = molecular target: T1, p38β (Homo sapiens, UniProt Q15759); assay: as above; type: biochemical
T1 sequence (Q15759 whole entry): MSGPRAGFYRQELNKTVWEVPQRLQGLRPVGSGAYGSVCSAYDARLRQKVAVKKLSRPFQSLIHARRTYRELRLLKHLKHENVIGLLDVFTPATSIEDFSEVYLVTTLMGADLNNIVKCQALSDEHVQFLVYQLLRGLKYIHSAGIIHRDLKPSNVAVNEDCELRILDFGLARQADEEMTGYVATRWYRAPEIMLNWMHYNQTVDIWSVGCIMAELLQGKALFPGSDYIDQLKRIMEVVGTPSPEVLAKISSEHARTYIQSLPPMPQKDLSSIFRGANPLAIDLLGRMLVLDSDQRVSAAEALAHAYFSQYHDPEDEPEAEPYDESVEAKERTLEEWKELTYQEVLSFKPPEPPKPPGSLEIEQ

p38α [2] = molecular target: T2, p38α (Homo sapiens, UniProt Q16539); assay: as above; type: biochemical
T2 sequence (Q16539 whole entry): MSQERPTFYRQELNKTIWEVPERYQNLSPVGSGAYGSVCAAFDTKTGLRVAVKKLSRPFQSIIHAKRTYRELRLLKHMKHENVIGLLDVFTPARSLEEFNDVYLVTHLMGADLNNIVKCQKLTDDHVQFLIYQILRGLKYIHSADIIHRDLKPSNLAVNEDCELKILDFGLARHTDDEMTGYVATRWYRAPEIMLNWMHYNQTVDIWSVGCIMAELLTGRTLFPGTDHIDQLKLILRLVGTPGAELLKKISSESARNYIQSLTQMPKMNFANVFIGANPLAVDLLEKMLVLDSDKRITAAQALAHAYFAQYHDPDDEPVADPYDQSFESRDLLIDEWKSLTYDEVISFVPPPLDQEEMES

p38α [3] = molecular target: T2, p38α; assay: Kinase panel selectivity screen, ERK sensor crosstalk with p38α; type: biochemical; settings: 15 nM kinase, sensor at 2 × KM (2.5 μM)
ERK2 = ERK2 (Homo sapiens, UniProt P28482); assay: Recombinant kinase assay, kinetic parameters of sensor phosphorylation; type: biochemical
Chain of ERK2 (P28482 whole entry): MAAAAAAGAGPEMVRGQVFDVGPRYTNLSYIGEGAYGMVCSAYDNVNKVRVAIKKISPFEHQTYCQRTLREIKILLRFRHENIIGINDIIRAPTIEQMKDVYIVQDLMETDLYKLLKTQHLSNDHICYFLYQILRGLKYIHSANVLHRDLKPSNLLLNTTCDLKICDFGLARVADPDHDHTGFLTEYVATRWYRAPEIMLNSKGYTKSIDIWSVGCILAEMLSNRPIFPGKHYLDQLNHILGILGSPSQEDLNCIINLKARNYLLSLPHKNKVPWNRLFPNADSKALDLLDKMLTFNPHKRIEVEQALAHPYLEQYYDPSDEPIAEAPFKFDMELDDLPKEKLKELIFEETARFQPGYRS

p38β [4] = molecular target: T1, p38β; assay: Kinase panel selectivity screen, ERK sensor crosstalk with p38β; type: biochemical; settings: 15 nM kinase, sensor at 2 × KM (2.5 μM)
ERK1 = ERK1 (Homo sapiens, UniProt P27361); assay: Recombinant kinase assay, kinetic parameters of sensor phosphorylation; type: biochemical
Chain of ERK1 (P27361 whole entry): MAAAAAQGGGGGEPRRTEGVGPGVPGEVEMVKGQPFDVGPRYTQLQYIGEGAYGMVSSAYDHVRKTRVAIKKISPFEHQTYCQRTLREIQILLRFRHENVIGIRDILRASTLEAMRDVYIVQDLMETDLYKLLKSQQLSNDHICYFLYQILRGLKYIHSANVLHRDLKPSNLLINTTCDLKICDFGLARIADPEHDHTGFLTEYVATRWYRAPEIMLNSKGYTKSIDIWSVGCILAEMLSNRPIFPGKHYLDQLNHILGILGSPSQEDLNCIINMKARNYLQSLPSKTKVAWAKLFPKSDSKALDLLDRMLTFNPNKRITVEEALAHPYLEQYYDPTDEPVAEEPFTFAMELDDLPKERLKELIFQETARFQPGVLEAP

[5] = recombinant JNK2, 1 mM ATP, pH 7.4, 30 °C, Sox fluorescence
[6] = recombinant JNK3, 1 mM ATP, pH 7.4, 30 °C, Sox fluorescence
[7] = recombinant JNK1, 1 mM ATP, pH 7.4, 30 °C, Sox fluorescence
[8] = 1 mM ATP, pH 7.4, 30 °C, Sox fluorescence
[9] = recombinant ERK2, 1 mM ATP, pH 7.4, 30 °C, Sox fluorescence
[10] = recombinant ERK1, 1 mM ATP, pH 7.4, 30 °C, Sox fluorescence

Substance: ERPSRDHLYLPLEP [NFAT4]
- Kd (ERK): > 100 µM
- Kd (p38): > 100 µM
- Kd (JNK): 7.1 µM

Substance: ERPSRDHLYLPLEP-PEG2-SANLLSP-Csox-PA [JNK1/2/3]
- catalytic efficiency (min^–1 μM^–1) (JNK2; recombinant JNK2): 19.2 min^–1 μM^–1
- Vmax (μmol min^–1 mg^–1) (JNK2; [5]): 0.37 ± 0.02 μmol min^–1 mg^–1
- kcat (min^–1) (JNK2; [5]): 18.2 ± 1.3 min^–1
- catalytic efficiency (min^–1 μM^–1) (JNK3; recombinant JNK3): 9.4 min^–1 μM^–1
- Vmax (μmol min^–1 mg^–1) (JNK3; [6]): 0.35 ± 0.07 μmol min^–1 mg^–1
- kcat (min^–1) (JNK3; [6]): 26.6 ± 5.6 min^–1
- activity observed for any of the off target kinases (percentage of the target kinase) (off target kinases): ≤ 12.5%
- catalytic efficiency (min^–1 μM^–1) (JNK1; recombinant JNK1): 5.4 min^–1 μM^–1
- Vmax (μmol min^–1 mg^–1) (JNK1; [7]): 0.38 ± 0.05 μmol min^–1 mg^–1
- kcat (min^–1) (JNK1; [7]): 17.9 ± 2.2 min^–1

Substance: GKKRRKLLLPNSADEIKKIKI-PEG2-Triazole-PEG2-QP-Csox-ASPVV [p38α/β]
- catalytic efficiency (min^–1 μM^–1) (p38β [1]): 282.9 min^–1 μM^–1
- Vmax (μmol min^–1 mg^–1) (p38β [1]; [8]): 0.84 ± 0.13 μmol min^–1 mg^–1
- kcat (min^–1) (p38β [1]; [8]): 39.6 ± 6.3 min^–1
- catalytic efficiency (min^–1 μM^–1) (p38α [2]): 298.7 min^–1 μM^–1
- Vmax (μmol min^–1 mg^–1) (p38α [2]; [8]): 1.37 ± 0.08 μmol min^–1 mg^–1
- kcat (min^–1) (p38α [2]; [8]): 92.6 ± 5.4 min^–1

Substance: GLKRVRRQALISSEIPKLQP-PEG2-Triazole-PEG2-VP-Csox-LTPGGRR [ERK1/2]
- crosstalk with p38α (percentage of the target kinase) (p38α [3]): 10%
- catalytic efficiency (min^–1 μM^–1) (ERK2; recombinant ERK2): 54.6 min^–1 μM^–1
- Vmax (μmol min^–1 mg^–1) (ERK2; [9]): 0.90 ± 0.01 μmol min^–1 mg^–1
- kcat (min^–1) (ERK2; [9]): 62.8 ± 0.7 min^–1
- crosstalk with p38β (percentage of the target kinase) (p38β [4]): 17%
- catalytic efficiency (min^–1 μM^–1) (ERK1; recombinant ERK1): 26.2 min^–1 μM^–1
- Vmax (μmol min^–1 mg^–1) (ERK1; [10]): 0.42 ± 0.03 μmol min^–1 mg^–1
- kcat (min^–1) (ERK1; [10]): 29.9 ± 2.0 min^–1

Substance: IKIKKIEDASNPLLLKRRKK [MK2]
- Kd (ERK): 19.5 µM
- Kd (p38): 0.05 µM
- Kd (JNK): > 100 µM

Substance: PQLKPIESSILAQRRVRKL [RSK1]
- Kd (JNK): > 100 µM

— article PMC4165445 (Biochemistry, 2014)
